For this assay, the system named is rats. As to the kind of experiment: Conditioned Place Preference (CPP) animal model of opioid-induced euphoria. The settings on record: subcutaneous, 6 conditioning days of 30 min sessions, preference assessed on day 8, time in drug-paired minus vehicle-paired chamber.

Procedure: It was administered in a volume of 2 ml/kg. […] The oxycodone was administered as the hydrochloride salt form and was dissolved in saline. The subcutaneous volume for each was 2 ml/kg.
For this Example, a 6 day unbiased, counterbalanced paradigm was employed. Innate preference was tested on day 1 (preconditioning day or baseline). On this day, naïve animals (rats) had free access to all three compartments for 30 minutes. The time spent in each chamber was automatically recorded. For conditioning sessions (days 2-7), animals were randomly assigned to compartment pairings for thirty minutes. During the first conditioning session (day 2), animals were randomly divided. […] Control animals received vehicle plus vehicle during each pairing. This conditioning procedure was replicated over five more days (thirty minute sessions for 6 total conditioning days). On day 8, preference was assessed. Each animal was allowed to roam freely about all three compartments for 30 minutes. The removable doors remained opened. The time spent in each compartment was automatically recorded. Conditioned Place Preference (“CPP”) (seconds) is represented as the difference between the time spent in the drug-paired and vehicle-paired chambers on the test day and is indicative of the rewarding properties associated with the compound(s) studied.

On to `COc1ccc2c3c1O[C@H]1C(=O)CC[C@@]4(O)[C@@H](C2)N(C)CC[C@]314` [oxycodone], for which the “Conditioned Place Preference (CPP) as compared to vehicle treated controls” value is “produces a statistically significant CPP”.

Source of the values: US20200276187A1, “SYSTEMS AND METHODS FOR A[…]-INDUCED EUPHORIA” (Purdue Pharma L.P., priority 2014, published 2020).
